Melting point data for 61 compounds are collected here from a melting point compilation (Tetko et al.; mined from patent text by program, amines drawn as free bases though some values may be those of a salt).

In general, melting point refers to the temperature, or range, at which the solid turns liquid.

In turn, `CC(C)Cc1ccc(C2(C)Oc3ccc(C(=O)c4c[nH]c5ccccc45)cc3O2)cc1` (single isomer, unassigned; (-)) returned a melting point of 155 to 158 °C.

Consider `C#CCN(c1ccc(C(=O)OC(C)(C)C)cc1)C1CCc2cc3nc(COC)[nH]c(=O)c3cc21` (racemic), for which the melting point was 191 to 192 °C. On to `COc1cc(C2CN(c3cc4c(cc3F)ncc3c4c(=O)c(C(=O)O)cn3C)CCN2)ccc1OCc1ccccc1` (stereo unspecified), for which the melting point was found to be 280 °C. In turn, `O=C1c2ccc(N=C(c3ccccc3)N3CCCCC3)cc2C(=O)c2ccc(N=C(c3ccccc3)N3CCCCC3)cc21` gave a melting point of 264 to 266 °C.

The compound `CCCCc1nc2ccccc2n1Cc1ccc(-c2ccccc2C2SC(=O)NC2=O)cc1` (stereo unspecified) showed a melting point of 162 to 163 °C. For the compound `COC(CCCNC(=O)c1ccc2c(c1)C(=O)N(CCCC(OC)OC)C2=O)OC`, the melting point is 102 °C. On to `N#CC1(N)CCSCC1`, for which the melting point lay within 51 to 52 °C. `O=C(Cl)c1c(Oc2ccccc2)cccc1Oc1ccccc1`: the melting point was 72 to 73 °C. `COC(=O)C1=C(C)NC(C)=C(C(=O)OCCN2CCN(C(c3ccccc3)c3ccccc3)CC2)C1c1cccc(Cl)c1` (stereo unspecified) came in with a melting point of 74 to 80 °C. To `CCOC(=O)c1ccccc1CCC(=O)Nc1cccc(/C=C/c2nc(C3CCC3)cs2)c1` belongs 110 to 111 °C; to `C#CCN1CCC(C(C)(C)CO)CC1`, 78 to 82 °C; to `COc1cc2c(c3c1OC(C)(C)C3)C(c1cccc(NC(=O)c3cccnc3)c1)=NC(C)(C)C2`, 213 to 219 °C. Turning to `CSCCNC(N)=Nc1ccccc1N1CCOCC1`, the melting point was 115 to 116 °C. Regarding `CCOC(=O)CNc1nc(-c2ccccc2)c2cc(Cl)ccc2n1`, the melting point was found to be 146 °C. The value for `CC1=CN2CCS(=O)(=O)N=C2C(c2ccc(Oc3ccccc3)cc2)=N1` was 92 to 92.5 °C; that for `CCc1nc2cc(NC)c(Cl)cc2n1-c1ccc(CCNC(=O)NS(=O)(=O)c2ccc(C)cc2)cc1` was 95 to 100 °C. The compound `NCCc1cn(S(=O)(=O)c2ccccc2Cl)c2cccnc12` showed a melting point of 106 to 108 °C. `CCc1cc2c(cc1CCSCC(N)=O)OCO2` returned a melting point of 98 to 99 °C. Regarding `Oc1ncnc2c(F)ccc(F)c12`, the melting point lay within 257 to 258 °C.

On to `Cc1nc2cccc(OCC(C)(C)NC(=O)C3CCC3)c2c(N)c1C(=O)O`, for which the melting point lay in the range of 186 to 190 °C. To `COC(=O)c1cc(-c2cccc([N+](=O)[O-])c2)cc2c1OCC2` belongs 53 to 57 °C; to `CC(=O)C(C)OC(=O)CC[C@H]1NC(=O)[C@@H]1N1C(=O)c2ccccc2C1=O` (stereo partly specified), 135 to 145 °C; to `C#CCOc1ccc2c(C)nnc(Cl)c2c1`, 169 to 171 °C. In turn, `O=C(O)[C@H]1CCn2c(cc3ccccc32)C1` gave a melting point of 244 to 246 °C. The value for `O=C1OC(Cc2ccccc2)CN1C(=O)c1ccccc1` (stereo unspecified) was 109 to 110 °C; that for `Cc1ccc(-c2ccc(S(=O)(=O)Nc3onc(C)c3Br)s2)cc1` was 175 °C; that for `CCC(CC)Oc1nc(C)nc(Nc2c(C)cc(C)cc2C)c1CO` was 121 to 123 °C. `NC(C(=O)OC1CCCCC1)C(=O)OC1CCCCC1` returned a melting point of 46 to 47 °C. `CC(=O)N1CCc2cccc(Cl)c2CC1` gave a melting point of 64 to 66 °C.

For `CCCCCCCCCCCCCCCCCCOc1cc(N(CC(=O)O)CC(=O)O)cc(S(C)=O)c1` (stereo unspecified), the melting point lay within 147 to 149 °C. For `COC(=O)Nc1nc(-c2ccccc2)c(-c2nc3ccccc3c(=O)n2-c2ccc(Cl)cc2)s1`, the melting point was greater than 275 °C. `COc1cn(-c2ccc(N3CCC(F)(F)CC3)cc2F)nc(-c2ccnn2-c2ccccc2)c1=O` had a melting point of 192 to 194 °C. Regarding `O=C1c2ccccc2C(=O)N1CCc1c[nH]c2ccc(Br)cc12`, the melting point was 206 to 209 °C.

With `C=CCn1c(=O)n(-c2ccc3c(c2)OCO3)c2ncccc21`, the melting point amounted to 100 °C. Compound `COC(=O)c1cc(-c2ccc(F)c(C)c2)nn(Cc2ccccc2)c1=O` displayed a melting point of 109 to 110 °C. To `CC(=O)NC(C)c1ccc(CN2CCN(c3ncccn3)CC2)cc1` (stereo unspecified) belongs 124 to 126 °C; to `O=[N+]([O-])c1ccc(-c2c(Cl)ncnc2NS(=O)(=O)c2ccc(Cl)cc2)cc1`, 282 to 285 °C. The value for `CO[C@@H]1C=C2C=C3C(=C(C)C(=O)N3C)C[C@]2(C)[C@@H](C)[C@H]1OC(=O)c1ccco1` was 155 to 158 °C; that for `Cc1ccc2c(c1)CNC(=O)CC2` was 174 to 175 °C; that for `CC(=O)Nc1ccc2[nH]c(=O)cc(CCN3CCC(c4c[nH]c5ccccc45)CC3)c2c1` was 180 to 183 °C.

`CCOc1c(Nc2ccncc2)c(=O)c1=O`: the melting point is 120 to 125 °C.

`COc1ccc(NC(=O)c2ccc(-c3ccc(-c4noc(C)n4)cc3C)cc2)cc1OCCN` had a melting point of 150 to 153 °C. Compound `COc1cc(N(C)C)ccc1C(=O)NC1CCN(C(C)CC(C(=O)N(C)C)(c2ccccc2)c2ccccc2)CC1O` (stereo unspecified) displayed a melting point of 211 °C.

On to `CCN(CC)Cc1nc2cc(OC)c(OC)cc2c(-c2ccc(OC)c(OC)c2)c1C(=O)CC(C)C`, for which the melting point lay within 153 to 154 °C. Consider `COc1cc(OC)c2cnoc2c1`, for which the melting point lay within 100 to 101 °C.

For `Cc1noc2cc3c(cc12)C1(CO3)C(=O)N(Cc2cnccn2)c2ccccc21` (stereo unspecified), the melting point was 170 to 173 °C. `O=C(NCCO[N+](=O)[O-])c1csc(-c2cccc([N+](=O)[O-])c2)n1` had a melting point of 149 to 152 °C. Compound `Cc1ccccc1-c1c(C(=O)O)oc2ccc(Cl)cc12` came in with a melting point of 212 to 214 °C. The compound `N#Cc1ccccc1-c1ccc(CCl)cn1` had a melting point of 97 to 98 °C. To `CCO[PH](=O)C#Cc1c(C(C)C)c2ccccc2n1-c1ccc(F)cc1` (stereo unspecified) belongs 80 to 82.5 °C; to `CCCCCCCCCCCCCCc1ccc(OCC2COC(C)(C)O2)c(CC)c1` (stereo unspecified), 34 to 38 °C; to `COC(=O)C(CC(C)C)NC(=O)c1cc([N+](=O)[O-])cc([N+](=O)[O-])c1` (stereo unspecified), 143 to 145 °C. The value for `COc1cc2c(cc1Nc1ncc(Cl)c(Nc3c(OC)ccc4c3CN(S(C)(=O)=O)CC(=O)N4)n1)CCN(CC(=O)N(C)C)CC2` was 118 to 121 °C; that for `COC(C)(C)c1cccc(Cn2nnc3c(-c4ccc(C)o4)nc(N)nc32)n1` was 178 °C. In turn, `Cc1cccc(C)c1N1CCCCS/C1=N/N=C\c1ccc(-c2ncn(-c3ccc(OC(F)(F)F)cc3)n2)cc1` displayed a melting point of 100 to 106 °C. Regarding `CCN(CC)OC(=O)c1cc(C(C)(C)C)c(O)c(C(C)(C)C)c1`, the melting point was 129 to 137 °C.

`O=C1CCC(Cc2ccc(Cl)cc2)N1` (stereo unspecified) gave a melting point of 95 to 98 °C.

Consider `O=C(Nc1ccc2nc(CN3CCCC3)ccc2c1)[C@H]1CO[C@H](c2ccc(Cl)cc2)OC1`, for which the melting point lay within 244 to 246 °C. With `Cc1c(Sc2cccnc2)sc2ccc(Br)cc12`, the melting point is 86 to 87 °C. Consider `COc1cc2c(cc1OCc1ccccc1)CCCC(C(=O)N1CCN(C(=O)c3cc(OC)c(OC)c(OC)c3)CC1)=C2`, for which the melting point lay in the range of 140 to 142 °C. On to `O=C(O)c1cc(-n2c(=O)cc(C(F)(F)F)[nH]c2=O)ccc1Cl`, for which the melting point lay in the range of 311 to 312 °C.
